# Entries after “also recorded” stand apart in the source; their conditions may differ.
# Key:
# [1] = system: 2′-deoxyguanosine (dG); assay: 8OHdG produced from added dG, standing at room temperature or UV irradiation (Examples 1-7); conditions: for 8OHdG concentration, UV irradiation 60 minutes: ultrapure water 0.392; for 8OHdG concentration, UV irradiation 90 minutes: ultrapure water 0.901; for 8OHdG concentration, UV irradiation 120 minutes: ultrapure water 1.183; for evaluation in words: oxidation induction or antioxidant ability toward dG: conclusions of Examples 2-7;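 for all read-outs here: Cell-free test: dG in test solution, held at room temperature or exposed to 254 nm UV, then 8OHdG quantified by HPLC with electrochemical detection, compared against dG in ultrapure water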
# [2] = system: 2′-deoxyguanosine (dG); assay: 8OHdG produced from dG with test substance and coexisting bisphenol A, standing or UV (Example 9); assay type: biochemical
# Procedure: 170 μl portions of ultrapure water and predetermined concentrations of vitamin C (VC), vitamin E (VE), and glucose (Glu) as test substance were added to each well of two […] plastic plates and, as additional solution, 20 μl of ultrapure water or predetermined concentration of bisphenol A (BPA) were injected into each well.
# [3] = 1 μg/ml, Table 2, distilled water 0.15
# [4] = 10 μg/ml, Table 2, distilled water 0.15
# [5] = test substance 0.001%, additional solution ultrapure water
molecule,measurement,setting,value
"OC[C@H]1O[C@@](CO)(O[C@H]2O[C@H](CO)[C@@H](O)[C@H](O)[C@H]2O)[C@@H](O)[C@@H]1O [Suc, sucrose]","8OHdG concentration, 90 Minutes' standing","[1]; 0.1 μg/ml, Table 4, ultrapure water 0.195",0.235 ng/mL
same,"8OHdG concentration, UV irradiation 60 minutes","[1]; 0.1 μg/ml, Table 4",0.299 ng/mL
same,"8OHdG concentration, UV irradiation 90 minutes","[1]; 0.1 μg/ml, Table 4",0.756 ng/mL
same,"8OHdG concentration, UV irradiation 120 minutes","[1]; 0.1 μg/ml, Table 4",1.073 ng/mL
same,"8OHdG concentration, 90 Minutes' standing","[1]; 1 μg/ml, Table 4, ultrapure water 0.195",0.185 ng/mL
same,"8OHdG concentration, UV irradiation 60 minutes","[1]; 1 μg/ml, Table 4",0.358 ng/mL
same,"8OHdG concentration, UV irradiation 90 minutes","[1]; 1 μg/ml, Table 4",0.708 ng/mL
same,"8OHdG concentration, UV irradiation 120 minutes","[1]; 1 μg/ml, Table 4",1.143 ng/mL
same,"8OHdG concentration, 90 Minutes' standing","[1]; 10 μg/ml, Table 4, ultrapure water 0.195",0.235 ng/mL
same,"8OHdG concentration, UV irradiation 60 minutes","[1]; 10 μg/ml, Table 4",0.333 ng/mL
same,"8OHdG concentration, UV irradiation 90 minutes","[1]; 10 μg/ml, Table 4",0.690 ng/mL
same,"8OHdG concentration, UV irradiation 120 minutes","[1]; 10 μg/ml, Table 4",1.279 ng/mL
same,"8OHdG concentration, 90 Minutes' standing","[1]; 100 μg/ml, Table 4, ultrapure water 0.195",0.280 ng/mL
same,"8OHdG concentration, UV irradiation 90 minutes","[1]; 100 μg/ml, Table 4",0.379 ng/mL
same,"8OHdG concentration, UV irradiation 120 minutes","[1]; 100 μg/ml, Table 4",0.648 ng/mL
same,"8OHdG concentration, 90 Minutes' standing","[1]; 1 mg/ml, Table 4, ultrapure water 0.195",0.300 ng/mL
same,"8OHdG concentration, UV irradiation 60 minutes","[1]; 1 mg/ml, Table 4",0.127 ng/mL
same,"8OHdG concentration, UV irradiation 90 minutes","[1]; 1 mg/ml, Table 4",0.309 ng/mL
same,"8OHdG concentration, UV irradiation 120 minutes","[1]; 1 mg/ml, Table 4",0.364 ng/mL
same,evaluation in words: oxidation induction or antioxidant ability toward dG,[1],Glu>Raffi≈Suc; also recorded: antioxidant ability as potent as that of Raffi
"O=C(OC[C@H]1O[C@@H](OC(=O)c2cc(O)c(O)c(OC(=O)c3cc(O)c(O)c(O)c3)c2)[C@H](OC(=O)c2cc(O)c(O)c(OC(=O)c3cc(O)c(O)c(O)c3)c2)[C@@H](OC(=O)c2cc(O)c(O)c(OC(=O)c3cc(O)c(O)c(O)c3)c2)[C@@H]1OC(=O)c1cc(O)c(O)c(OC(=O)c2cc(O)c(O)c(O)c2)c1)c1cc(O)c(O)c(OC(=O)c2cc(O)c(O)c(O)c2)c1 [Tan, tannic acid]","8OHdG concentration, 90 Minutes' standing",[1]; [3],0.84 ng/mL
same,"8OHdG concentration, 90 Minutes' UV irradiation","[1]; 1 μg/ml, Table 2, distilled water 1.23",1.04 ng/mL
same,"8OHdG concentration, 90 Minutes' standing",[1]; [4],5.64 ng/mL
same,"8OHdG concentration, 90 Minutes' UV irradiation","[1]; 10 μg/ml, Table 2, distilled water 1.23",19.29 ng/mL
same,"8OHdG concentration, 90 Minutes' standing","[1]; 100 μg/ml, Table 2, distilled water 0.15",54.00 ng/mL
same,"8OHdG concentration, 90 Minutes' UV irradiation","[1]; 100 μg/ml, Table 2, distilled water 1.23",97.07 ng/mL
same,evaluation in words: oxidation induction or antioxidant ability toward dG,[1],high gene injury inducing effect
"O=C1O[C@H]([C@@H](O)CO)C(O)=C1O [VC, ascorbic acid]","8OHdG concentration, 90 Minutes' standing","[1]; 0.00001%, Table 2, distilled water 0.15",0.44 ng/mL
same,"8OHdG concentration, 90 Minutes' UV irradiation","[1]; 0.00001%, Table 2, distilled water 1.23",0.46 ng/mL
same,"8OHdG concentration, 90 Minutes' standing","[1]; 0.0001%, Table 2, distilled water 0.15",0.63 ng/mL
same,"8OHdG concentration, 90 Minutes' UV irradiation","[1]; 0.0001%, Table 2, distilled water 1.23",1.51 ng/mL
same,"8OHdG concentration, 90 Minutes' standing","[1]; 0.001%, Table 2, distilled water 0.15",6.04 ng/mL
same,"8OHdG concentration, 90 Minutes' UV irradiation","[1]; 0.001%, Table 2, distilled water 1.23",38.36 ng/mL
same,evaluation in words: oxidation induction or antioxidant ability toward dG,[1],very strong oxidation inducing substance
same,8OHdG induction on storage,[1]; stored for a long period added to a dG solution in contact with air,a large amount of 8OHdG was induced
same,effect on 8OHdG with BPA and UV light irradiation,[2]; Example 9,does not cancel the induction of 8OHdG by BPA
same,"8OHdG concentration, 90 Minutes' UV irradiation","[2]; test substance 0.00001%, additional solution BPA (50 ppm), BPA alone 11.58",14.96 ng/mL
same,"8OHdG concentration, 90 Minutes' UV irradiation","[2]; test substance 0.0001%, additional solution BPA (50 ppm), BPA alone 11.58",15.95 ng/mL
same,"8OHdG concentration, 90 Minutes' standing","[2]; test substance 0.001%, additional solution BPA (50 ppm), BPA alone 0.22",1.51 ng/mL
same,"8OHdG concentration, 90 Minutes' UV irradiation","[2]; test substance 0.001%, additional solution BPA (50 ppm), BPA alone 11.58",12.53 ng/mL
same,"8OHdG concentration, 90 Minutes' UV irradiation",[2]; [5],5.75 ng/mL
same,"8OHdG concentration, 90 Minutes' standing",[2]; [5],16.3 ng/mL
O=c1[nH]c(=O)c2[nH]c(=O)[nH]c2[nH]1 [uric acid],"8OHdG concentration, 90 Minutes' standing","[1]; 0.01 μg/ml, Table 6, dissolving fluid 0.218",0.176 ng/mL
same,"8OHdG concentration, 90 Minutes' UV irradiation","[1]; 0.01 μg/ml, Table 6, dissolving fluid 1.007",1.064 ng/mL
same,"8OHdG concentration, 90 Minutes' standing","[1]; 0.1 μg/ml, Table 6, dissolving fluid 0.218",0.193 ng/mL
same,"8OHdG concentration, 90 Minutes' UV irradiation","[1]; 0.1 μg/ml, Table 6, dissolving fluid 1.007",0.966 ng/mL
same,"8OHdG concentration, 90 Minutes' standing","[1]; 1 μg/ml, Table 6, dissolving fluid 0.218",0.175 ng/mL
same,"8OHdG concentration, 90 Minutes' UV irradiation","[1]; 1 μg/ml, Table 6, dissolving fluid 1.007",2.369 ng/mL
same,"8OHdG concentration, 90 Minutes' standing","[1]; 10 μg/ml in distilled water+0.025% FBS, Table 6, dissolving fluid 0.218",0.147 ng/mL
same,"8OHdG concentration, 90 Minutes' UV irradiation","[1]; 10 μg/ml in distilled water+0.025% FBS, Table 6, dissolving fluid 1.007",15.619 ng/mL
same,evaluation in words: oxidation induction or antioxidant ability toward dG,[1],high degree of DNA oxidation injury
catechin,"8OHdG concentration, 90 Minutes' standing",[1]; [3],9.07 ng/mL
same,"8OHdG concentration, 90 Minutes' standing",[1]; [4],133.71 ng/mL
same,evaluation in words: oxidation induction or antioxidant ability toward dG,[1],induces 8OHdG very strongly
